{
  "source": "patent US20220287302A1",
  "about": "“COMPOSITIONS FOR PATHOGEN IN[…] PATHOGEN REDUCTION MANAGEMENT” (priority 2020, published 2022)",
  "origin": "cited, not measured here",
  "data": [
    {"smiles": "O=c1c(O)c(O)c1=O", "note": "[Squaric acid, 3,4-dihydroxy-3-cyclobutene-1,2 dione]", "values": [
      {"measurement": "pKa for the first proton", "setting": "first proton", "value": 1.5},
      {"measurement": "pKa for the second proton", "setting": "second proton", "value": 3.4}
    ]}
  ]
}
